From PubChem BioAssay (NCI)
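Cultured in 96-well plates, cells were exposed to test compound for 48 hours across five concentrations. GI50 marks 50% less growth. Definition used: TGI = concentration required for complete inhibition of growth.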

Assays:
Experiment in all cases: DTP human tumour cell line panel, 48 h
DU-145 prostate = test system: DU-145 prostate
SK-OV-3 ovarian = test system: SK-OV-3 ovarian
HCT-116 colon = test system: HCT-116 colon
TK-10 renal = test system: TK-10 renal
OVCAR-8 ovarian = test system: OVCAR-8 ovarian
786-0 renal = test system: 786-0 renal
MDA-MB-231 breast = test system: MDA-MB-231 breast
SF-295 CNS = test system: SF-295 CNS
MOLT-4 leukemia = test system: MOLT-4 leukemia
HL-60(TB) leukemia = test system: HL-60(TB) leukemia
OVCAR-5 ovarian = test system: OVCAR-5 ovarian
K-562 leukemia = test system: K-562 leukemia
UACC-62 melanoma = test system: UACC-62 melanoma
PC-3 prostate = test system: PC-3 prostate
COLO 205 colon = test system: COLO 205 colon
SF-268 CNS = test system: SF-268 CNS
HCC-2998 colon = test system: HCC-2998 colon
SW-620 colon = test system: SW-620 colon
A498 renal = test system: A498 renal
KM12 colon = test system: KM12 colon
SR leukemia = test system: SR leukemia
UO-31 renal = test system: UO-31 renal
SNB-19 CNS = test system: SNB-19 CNS
T-47D breast = test system: T-47D breast
SK-MEL-28 melanoma = test system: SK-MEL-28 melanoma
NCI-H226 lung = test system: NCI-H226 lung
HOP-62 NSCLC = test system: HOP-62 NSCLC
U251 CNS = test system: U251 CNS
MCF7 breast = test system: MCF7 breast
LOX IMVI melanoma = test system: LOX IMVI melanoma
HS 578T breast = test system: HS 578T breast
MDA-MB-435 = test system: MDA-MB-435
HOP-92 NSCLC = test system: HOP-92 NSCLC
RPMI-8226 leukemia = test system: RPMI-8226 leukemia
BT-549 breast = test system: BT-549 breast
RXF 393 renal = test system: RXF 393 renal
NCI-H522 lung = test system: NCI-H522 lung
IGROV1 ovarian = test system: IGROV1 ovarian
OVCAR-3 ovarian = test system: OVCAR-3 ovarian
HT29 colon = test system: HT29 colon
HCT-15 colon = test system: HCT-15 colon
EKVX NSCLC = test system: EKVX NSCLC
SK-MEL-5 melanoma = test system: SK-MEL-5 melanoma
SK-MEL-2 melanoma = test system: SK-MEL-2 melanoma
CCRF-CEM leukemia = test system: CCRF-CEM leukemia
SN12C renal = test system: SN12C renal
CAKI-1 renal = test system: CAKI-1 renal
SF-539 CNS = test system: SF-539 CNS
NCI-H460 lung = test system: NCI-H460 lung
MALME-3M melanoma = test system: MALME-3M melanoma
NCI/ADR-RES ovarian = test system: NCI/ADR-RES ovarian
NCI-H23 lung = test system: NCI-H23 lung
ACHN renal = test system: ACHN renal
A549 NSCLC = test system: A549 NSCLC
M14 melanoma = test system: M14 melanoma
OVCAR-4 ovarian = test system: OVCAR-4 ovarian
UACC-257 melanoma = test system: UACC-257 melanoma

Work on `C=C1C(=O)O[C@H]2[C@H]1CC/C(COC(=O)NCc1ccc(Cn3c(=O)sn(CCCC)c3=O)cc1)=C\CC[C@@]1(C)O[C@@H]21` yielded a GI50 (DU-145 prostate) of 1.81 µM, a TGI (DU-145 prostate) of 3.36 µM and a GI50 (SK-OV-3 ovarian) of 15.2 µM. It also gave a TGI (SK-OV-3 ovarian) of 28.7 µM, a GI50 (HCT-116 colon) of 1.36 µM and a TGI (HCT-116 colon) of 2.78 µM. The GI50 (TK-10 renal) was 1.81 µM, the TGI (TK-10 renal) was 3.59 µM and the GI50 (OVCAR-8 ovarian) was 3.64 µM. The TGI (OVCAR-8 ovarian) was 15.2 µM, the GI50 (786-0 renal) was 2 µM and the TGI (786-0 renal) was 4.02 µM. It also gave a GI50 (MDA-MB-231 breast) of 1.8 µM, a TGI (MDA-MB-231 breast) of 3.57 µM and a GI50 (SF-295 CNS) of 15.3 µM. The TGI (SF-295 CNS) was 29 µM, the GI50 (MOLT-4 leukemia) was 1.55 µM and the TGI (MOLT-4 leukemia) was 5.73 µM. It also gave a GI50 (HL-60(TB) leukemia) of 1.81 µM, a TGI (HL-60(TB) leukemia) of 5.42 µM and a GI50 (OVCAR-5 ovarian) of 1.93 µM. The TGI (OVCAR-5 ovarian) was 4.06 µM, the GI50 (K-562 leukemia) was 0.891 µM and the TGI (K-562 leukemia) was greater than 100 µM. It also gave a GI50 (UACC-62 melanoma) of 1.62 µM, a TGI (UACC-62 melanoma) of 3.22 µM and a GI50 (PC-3 prostate) of 1.75 µM. The TGI (PC-3 prostate) was 3.56 µM, the GI50 (COLO 205 colon) was 2 µM and the TGI (COLO 205 colon) was 3.88 µM. The GI50 (SF-268 CNS) was 4.28 µM, the TGI (SF-268 CNS) was 17.2 µM and the GI50 (HCC-2998 colon) was 4.1 µM. It also gave a TGI (HCC-2998 colon) of 13.4 µM, a GI50 (SW-620 colon) of 1.51 µM and a TGI (SW-620 colon) of 3.09 µM. The GI50 (A498 renal) was 3.28 µM, the TGI (A498 renal) was 14.1 µM and the GI50 (KM12 colon) was 14.8 µM. The TGI (KM12 colon) was 29.4 µM, the GI50 (SR leukemia) was 0.407 µM and the TGI (SR leukemia) was 5.39 µM. The GI50 (UO-31 renal) was 1.45 µM, the TGI (UO-31 renal) was 2.78 µM and the GI50 (SNB-19 CNS) was 6.63 µM. The TGI (SNB-19 CNS) was 19.6 µM, the GI50 (T-47D breast) was 2.04 µM and the TGI (T-47D breast) was 4.83 µM. For the same molecule, the GI50 (SK-MEL-28 melanoma) was 1.8 µM, the TGI (SK-MEL-28 melanoma) was 3.36 µM and the GI50 (NCI-H226 lung) was 11.9 µM. For the same molecule, the TGI (NCI-H226 lung) was 29.8 µM, the GI50 (HOP-62 NSCLC) was 12.7 µM and the TGI (HOP-62 NSCLC) was 26.6 µM. For the same molecule, the GI50 (U251 CNS) was 4.15 µM, the TGI (U251 CNS) was 15.5 µM and the GI50 (MCF7 breast) was 1.87 µM. The TGI (MCF7 breast) was 3.91 µM, the GI50 (LOX IMVI melanoma) was 1.65 µM and the TGI (LOX IMVI melanoma) was 3.08 µM. The GI50 (HS 578T breast) was 3.24 µM, the TGI (HS 578T breast) was 12.7 µM and the GI50 (MDA-MB-435) was 1.65 µM. The TGI (MDA-MB-435) was 3.22 µM, the GI50 (HOP-92 NSCLC) was 1.29 µM and the TGI (HOP-92 NSCLC) was 2.72 µM. For the same molecule, the GI50 (RPMI-8226 leukemia) was 1.48 µM, the TGI (RPMI-8226 leukemia) was 4.07 µM and the GI50 (BT-549 breast) was 1.56 µM. For the same molecule, the TGI (BT-549 breast) was 3.03 µM, the GI50 (RXF 393 renal) was 1.57 µM and the TGI (RXF 393 renal) was 3.04 µM. The GI50 (NCI-H522 lung) was 1.19 µM, the TGI (NCI-H522 lung) was 2.88 µM and the GI50 (IGROV1 ovarian) was 1.83 µM. It also gave a TGI (IGROV1 ovarian) of 3.93 µM, a GI50 (OVCAR-3 ovarian) of 1.59 µM and a TGI (OVCAR-3 ovarian) of 2.97 µM. For the same molecule, the GI50 (HT29 colon) was 2.08 µM, the TGI (HT29 colon) was 4.18 µM and the GI50 (HCT-15 colon) was 2.02 µM. It also gave a TGI (HCT-15 colon) of 3.76 µM, a GI50 (EKVX NSCLC) of 3.32 µM and a TGI (EKVX NSCLC) of 9.83 µM. For the same molecule, the GI50 (SK-MEL-5 melanoma) was 3.18 µM, the TGI (SK-MEL-5 melanoma) was 9.48 µM and the GI50 (SK-MEL-2 melanoma) was 4.52 µM. The TGI (SK-MEL-2 melanoma) was 17 µM, the GI50 (CCRF-CEM leukemia) was 0.657 µM and the TGI (CCRF-CEM leukemia) was 4.56 µM. It also gave a GI50 (SN12C renal) of 1.73 µM, a TGI (SN12C renal) of 3.93 µM and a GI50 (CAKI-1 renal) of 1.64 µM. It also gave a TGI (CAKI-1 renal) of 3.24 µM, a GI50 (SF-539 CNS) of 1.68 µM and a TGI (SF-539 CNS) of 3.24 µM. For the same molecule, the GI50 (NCI-H460 lung) was 5.92 µM, the TGI (NCI-H460 lung) was 19.6 µM and the GI50 (MALME-3M melanoma) was 1.6 µM. For the same molecule, the TGI (MALME-3M melanoma) was 3.32 µM, the GI50 (NCI/ADR-RES ovarian) was 27.8 µM and the TGI (NCI/ADR-RES ovarian) was 97.9 µM. For the same molecule, the GI50 (NCI-H23 lung) was 4.19 µM, the TGI (NCI-H23 lung) was 15.3 µM and the GI50 (ACHN renal) was 1.67 µM. For the same molecule, the TGI (ACHN renal) was 3.08 µM, the GI50 (A549 NSCLC) was 13.4 µM and the TGI (A549 NSCLC) was 28.7 µM. For the same molecule, the GI50 (M14 melanoma) was 1.45 µM, the TGI (M14 melanoma) was 2.97 µM and the GI50 (OVCAR-4 ovarian) was 1.52 µM. For the same molecule, the TGI (OVCAR-4 ovarian) was 3.05 µM, the GI50 (UACC-257 melanoma) was 2.03 µM and the TGI (UACC-257 melanoma) was 4.93 µM.
